We go through 10 compounds from patent US12180193B2, “Accelerating fibrosarcoma protein degrading compounds and associated methods of use” (Arvinas Operations, Inc., priority 2020, dated 2024).

Assay [1] has as its target T1, BRAF V600E (Homo sapiens, UniProt P15056, V600E).
T1 construct: expressed in transfected cells
The experiment in a line: Cellular assay of target protein degradation, T-Rex 293 cells stably transfected with HA-BRAF_V600E (HA immunofluorescence, high content imaging). It is filed as cell-based. As to conditions: T-Rex 293 HA-BRAF V600E; for DC50: half maximal degradation, read-out: BRaf V600E DC50; for Dmax: maximum degradation observed. Summed up:
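Read-out is anti-HA immunofluorescence quantified by high-content imaging, giving half-maximal degradation concentration (DC50) and maximum degradation (Dmax, percent of control). Cells expressed the construct under 1 ng/mL doxycycline and received compound (1 μM to 0.1 nM final, 0.1% DMSO) for 24 h at 37 °C.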

In assay [2] the target is T2, BRAF G466V (Homo sapiens, UniProt P15056, G466V).
T2 construct: expressed in transfected cells
The experiment in a line: Cellular assay of target protein degradation, T-Rex 293 cells stably transfected with HA-BRAF G466V (HA immunofluorescence, high content imaging). It counts as cell-based. As to conditions: T-Rex 293 HA-BRAF G466V; for DC50: half maximal degradation, read-out: BRaf G466V DC50; for Dmax: maximum degradation observed. Summed up: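 First, stably transfected T-Rex 293 cells were plated with 0.75 ng/mL doxycycline and grown for 24 hours. Next, compound (final 30 nM to 3 pM, 0.1% DMSO) was added for another 24 hours at 37° C. Finally, cells were fixed, stained for HA and imaged.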

T1 sequence (P15056 whole entry V600E): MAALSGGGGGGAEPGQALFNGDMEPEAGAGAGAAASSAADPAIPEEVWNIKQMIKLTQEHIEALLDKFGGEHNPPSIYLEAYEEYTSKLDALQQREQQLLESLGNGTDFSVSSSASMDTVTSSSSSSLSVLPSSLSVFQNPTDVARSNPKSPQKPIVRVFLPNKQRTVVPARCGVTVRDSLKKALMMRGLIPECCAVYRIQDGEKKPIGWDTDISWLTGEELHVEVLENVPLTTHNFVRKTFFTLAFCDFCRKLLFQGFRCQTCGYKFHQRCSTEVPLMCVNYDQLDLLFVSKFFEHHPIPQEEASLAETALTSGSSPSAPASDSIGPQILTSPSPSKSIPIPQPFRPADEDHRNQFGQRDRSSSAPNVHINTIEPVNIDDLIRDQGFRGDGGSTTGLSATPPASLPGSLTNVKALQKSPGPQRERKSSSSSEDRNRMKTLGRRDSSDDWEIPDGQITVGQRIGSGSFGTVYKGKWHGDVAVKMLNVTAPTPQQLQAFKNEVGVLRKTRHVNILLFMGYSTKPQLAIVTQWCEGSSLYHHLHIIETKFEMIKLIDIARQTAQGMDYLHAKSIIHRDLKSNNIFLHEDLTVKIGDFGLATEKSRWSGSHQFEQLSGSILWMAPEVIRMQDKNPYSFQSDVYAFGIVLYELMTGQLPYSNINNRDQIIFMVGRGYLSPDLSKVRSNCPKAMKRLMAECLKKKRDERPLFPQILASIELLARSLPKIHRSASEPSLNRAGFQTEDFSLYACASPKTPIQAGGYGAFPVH
T2 sequence (P15056 whole entry G466V): as the sequence (P15056 whole entry V600E) above, with G466V, E600V counted along it

For `O=C1CCN(c2ccc(C3CCN(CC4CCN(c5ccc(-c6cnc7[nH]cc(C(=O)c8c(F)ccc(NS(=O)(=O)N9CC[C@@H](F)C9)c8F)c7c6)cc5)CC4)CC3)cc2F)C(=O)N1` [Compound 140, (3R)-N-[3-(5-{4-[4-({4-[4-(2,4-dioxo-1,3-diazinan-1-yl)-3-fluorophenyl]piperidin-1-yl}methyl)piperidin-1-yl]phenyl}-1H-pyrrolo[2,3-b]pyridine-3-carbonyl)-2,4-difluorophenyl]-3-fluoropyrrolidine-1-sulfonamide], in assay [1], the DC50 was in the range of 5 to 50 nM and the Dmax is 35 to 70%. Moreover, in assay [2], the DC50 is under 1 nM and the Dmax is 35 to 70%.

Take `O=C1CCC(N2Cc3cc(CCCN4CC5(C4)CN(c4ccc(-c6cnc7[nH]cc(C(=O)c8c(F)ccc(NS(=O)(=O)N9CC[C@@H](F)C9)c8F)c7c6)cn4)C5)ccc3C2=O)C(=O)N1` (stereo partly drawn) [Compound 141, (3R)-N-(3-{5-[6-(6-{3-[2-(2,6-dioxopiperidin-3-yl)-1-oxo-2,3-dihydro-1H-isoindol-5-yl]propyl}-2,6-diazaspiro[3.3]heptan-2-yl)pyridin-3-yl]-1H-pyrrolo[2,3-b]pyridine-3-carbonyl}-2,4-difluorophenyl)-3-fluoropyrrolidine-1-sulfonamide]: the figures for the DC50 in assay [1] and in assay [2] were 5 to 50 nM and 1 to 10 nM, respectively. In addition, the Dmax was 35 to 70% in assay [1] and over 70% in assay [2].

On to `O=C1CCC(N2Cc3cc(N4CCC(O)(CN5CC6(C5)CN(c5ccc(-c7cnc8[nH]cc(C(=O)c9c(F)ccc(NS(=O)(=O)N%10CC[C@@H](F)C%10)c9F)c8c7)cc5)C6)CC4)ccc3C2=O)C(=O)N1` (stereo partly drawn) [Compound 142, (3R)—N-[3-[5-[4-[6-[[1-[2-(2,6-dioxo-3-piperidyl)-1-oxo-isoindolin-5-yl]-4-hydroxy-4-piperidyl]methyl]-2,6-diazaspiro[3.3]heptan-2-yl]phenyl]-1H-pyrrolo[2,3-b]pyridine-3-carbonyl]-2,4-difluoro-phenyl]-3-fluoro-pyrrolidine-1-sulfonamide], for which the DC50 lay within 5 to 50 nM in assay [1] and 1 to 10 nM in assay [2]. Further, the Dmax in assay [1] was 35 to 70%; in assay [2] it was over 70%.

As to `O=C1CCC(N2Cc3cc(N4CCC(COCC5CCN(c6ccc(-c7cnc8[nH]cc(C(=O)c9c(F)ccc(NS(=O)(=O)N%10CC[C@@H](F)C%10)c9F)c8c7)cc6)CC5)CC4)ccc3C2=O)C(=O)N1` (stereo partly drawn) [Compound 143, (3R)-N-{3-[5-(4-{4-[({1-[2-(2,6-dioxopiperidin-3-yl)-1-oxo-2,3-dihydro-1H-isoindol-5-yl]piperidin-4-yl}methoxy)methyl]piperidin-1-yl}phenyl)-1H-pyrrolo[2,3-b]pyridine-3-carbonyl]-2,4-difluorophenyl}-3-fluoropyrrolidine-1-sulfonamide], the DC50 was 5 to 50 nM in assay [1] and 10 to 30 nM in assay [2]. Besides, the Dmax in assay [1] was under 35%; in assay [2], 35 to 70%.

Consider `O=C1CCC(N2Cc3cc(N4CCC(N5CCN(CC6CN(c7ccc(-c8cnc9[nH]cc(C(=O)c%10c(F)ccc(NS(=O)(=O)N%11CC[C@@H](F)C%11)c%10F)c9c8)cc7)C6)CC5)CC4)ccc3C2=O)C(=O)N1` (stereo partly drawn) [Compound 144, (3R)-N-{3-[5-(4-{3-[(4-{1-[2-(2,6-dioxopiperidin-3-yl)-1-oxo-2,3-dihydro-1H-isoindol-5-yl]piperidin-4-yl}piperazin-1-yl)methyl]azetidin-1-yl}phenyl)-1H-pyrrolo[2,3-b]pyridine-3-carbonyl]-2,4-difluorophenyl}-3-fluoropyrrolidine-1-sulfonamide], for which the DC50 in assay [1] was under 5 nM; in assay [2], 1 to 10 nM. The maximal degradation (Dmax) was 35 to 70% in assay [1] and over 70% in assay [2].

For the compound `CN(CCN1CCN(c2ccc3c(c2)CN(C2CCC(=O)NC2=O)C3=O)CC1)[C@H]1CC[C@H](Oc2ccc(-c3cnc4[nH]cc(C(=O)c5c(F)ccc(NS(=O)(=O)N6CC[C@@H](F)C6)c5F)c4c3)cc2)CC1` (stereo partly drawn) [Compound 145, (3R)-N-{2,4-difluoro-3-[5-(4-{[(1r,4r)-4-[(2-{4-[2-(2,6-dioxopiperidin-3-yl)-1-oxo-2,3-dihydro-1H-isoindol-5-yl]piperazin-1-yl}ethyl)(methyl)amino]cyclohexyl]oxy}phenyl)-1H-pyrrolo[2,3-b]pyridine-3-carbonyl]phenyl}-3-fluoropyrrolidine-1-sulfonamide], in assay [1], the 50% degradation concentration (DC50) lay in the range of 5 to 50 nM and the Dmax was in the range of 35 to 70%. Further, in assay [2], the half-maximal degradation concentration (DC50) was in the range of 1 to 10 nM and the Dmax was over 70%.

For `O=C1CCC(N2Cc3cc(N4CCC(CN5CCN(Cc6ccc(-c7cnc8[nH]cc(C(=O)c9c(F)ccc(NS(=O)(=O)N%10CC[C@@H](F)C%10)c9F)c8c7)cc6)CC5)CC4)ccc3C2=O)C(=O)N1` (stereo partly drawn) [Compound 146, (3R)-N-{3-[5-(4-{[4-({1-[2-(2,6-dioxopiperidin-3-yl)-1-oxo-2,3-dihydro-1H-isoindol-5-yl]piperidin-4-yl}methyl)piperazin-1-yl]methyl}phenyl)-1H-pyrrolo[2,3-b]pyridine-3-carbonyl]-2,4-difluorophenyl}-3-fluoropyrrolidine-1-sulfonamide], in assay [1], the DC50 lay in the range of 5 to 50 nM and the Dmax lay within 35 to 70%. For the same compound, in assay [2], the DC50 fell in the range of 1 to 10 nM and the Dmax is over 70%.

As to `O=C1CCC(N2Cc3cc(CCCN4CC5(C4)CN(c4ncc(-c6cnc7[nH]cc(C(=O)c8c(F)ccc(NS(=O)(=O)N9CC[C@@H](F)C9)c8F)c7c6)cn4)C5)ccc3C2=O)C(=O)N1` (stereo partly drawn) [Compound 147, (3R)-N-(3-{5-[2-(6-{3-[2-(2,6-dioxopiperidin-3-yl)-1-oxo-2,3-dihydro-1H-isoindol-5-yl]propyl}-2,6-diazaspiro[3.3]heptan-2-yl)pyrimidin-5-yl]-1H-pyrrolo[2,3-b]pyridine-3-carbonyl}-2,4-difluorophenyl)-3-fluoropyrrolidine-1-sulfonamide], in assay [1], the DC50 lay within 50 to 500 nM and the Dmax lay in the range of 35 to 70%. For the same compound, in assay [2], the DC50 was 1 to 10 nM and the Dmax lay in the range of 35 to 70%.

As to `O=C1CCC(N2Cc3cc(CCOCCN4CCN(c5ccc(-c6cnc7[nH]cc(C(=O)c8c(F)ccc(NS(=O)(=O)N9CC[C@@H](F)C9)c8F)c7c6)cc5)CC4)ccc3C2=O)C(=O)N1` (stereo partly drawn) [Compound 148, (3R)-N-[3-(5-{4-[4-(2-{2-[2-(2,6-dioxopiperidin-3-yl)-1-oxo-2,3-dihydro-1H-isoindol-5-yl]ethoxy}ethyl)piperazin-1-yl]phenyl}-1H-pyrrolo[2,3-b]pyridine-3-carbonyl)-2,4-difluorophenyl]-3-fluoropyrrolidine-1-sulfonamide], in assay [1], the DC50 was 5 to 50 nM and the Dmax was in the range of 35 to 70%. Moreover, in assay [2], the DC50 was 1 to 10 nM and the Dmax is over 70%.

Take `O=C1CCC(N2Cc3cc(C4CCN(CCc5ccc(-c6cnc7[nH]cc(C(=O)c8c(F)ccc(NS(=O)(=O)N9CC[C@@H](F)C9)c8F)c7c6)cc5)[C@H](CO)C4)ccc3C2=O)C(=O)N1` (stereo partly drawn) [Compound 149, (3R)-N-{3-[5-(4-{2-[(2S)-4-[2-(2,6-dioxopiperidin-3-yl)-1-oxo-2,3-dihydro-1H-isoindol-5-yl]-2-(hydroxymethyl)piperidin-1-yl]ethyl}phenyl)-1H-pyrrolo[2,3-b]pyridine-3-carbonyl]-2,4-difluorophenyl}-3-fluoropyrrolidine-1-sulfonamide]: in assay [1], the DC50 lay within 50 to 500 nM and the Dmax was in the range of 35 to 70%. Besides, in assay [2], the DC50 is 1 to 10 nM and the Dmax is over 70%.
